Measured values published in the NIST ThermoML archive (doi:10.1016/j.jct.2017.02.014).
± gives the expanded uncertainty stated by the source.

Key:
[1] = refractive index (other wavelength) (dimensionless); details: 100 kPa, Liquid, Wavelength=632.8 nm, minimum deviation angle method
[2] = refractive index (Na D-line) (dimensionless); details: 298.15 K; 101.33 kPa; Liquid; Standard Abbe refractometry
[3] = refractive index (other wavelength) (dimensionless); xn = mol fraction of the nth substance listed; details: 100 kPa, Liquid, Wavelength=632.8 nm, minimum deviation angle method, x2 = 0

CCO [ethanol]
[1]
Details | refractive index
282.04 K | 1.3645 ± 0.0002
283.11 K | 1.364 ± 0.0002
284.04 K | 1.3637 ± 0.0002
285.65 K | 1.363 ± 0.0002
286.62 K | 1.3626 ± 0.0002
288.17 K | 1.362 ± 0.0002
289.33 K | 1.3615 ± 0.0002
290.8 K | 1.3609 ± 0.0002
291.84 K | 1.3604 ± 0.0002
292.94 K | 1.36 ± 0.0002
293.77 K | 1.3596 ± 0.0002
295.49 K | 1.3589 ± 0.0002
296.51 K | 1.3585 ± 0.0002
297.44 K | 1.3581 ± 0.0002
298.14 K | 1.3578 ± 0.0002

Details | refractive index
[2] | 1.3596 ± 0.0007

CCO [ethanol] + CCCC[n+]1ccccc1.F[B-](F)(F)F
[3]
Details | refractive index
282.04 K | 1.3645 ± 0.0002
283.11 K | 1.364 ± 0.0002
284.04 K | 1.3637 ± 0.0002
285.65 K | 1.363 ± 0.0002
286.62 K | 1.3626 ± 0.0002
288.17 K | 1.362 ± 0.0002
289.33 K | 1.3615 ± 0.0002
290.8 K | 1.3609 ± 0.0002
291.84 K | 1.3604 ± 0.0002
292.94 K | 1.36 ± 0.0002
293.77 K | 1.3596 ± 0.0002
295.49 K | 1.3589 ± 0.0002
296.51 K | 1.3585 ± 0.0002
297.44 K | 1.3581 ± 0.0002
298.14 K | 1.3578 ± 0.0002

CCCC[n+]1ccccc1.F[B-](F)(F)F [1-butylpyridinium tetrafluoroborate]
[1]
Details | refractive index
281.73 K | 1.4481 ± 0.0003
282.78 K | 1.4478 ± 0.0003
284.14 K | 1.4475 ± 0.0003
285.74 K | 1.4471 ± 0.0003
286.94 K | 1.4468 ± 0.0003
288.24 K | 1.4464 ± 0.0003
289.38 K | 1.4461 ± 0.0003
290.37 K | 1.4458 ± 0.0003
292.15 K | 1.4454 ± 0.0003
293.41 K | 1.4451 ± 0.0003
295 K | 1.4446 ± 0.0003
296.89 K | 1.444 ± 0.0003

Details | refractive index
[2] | 1.4459 ± 0.0007
